# Data as given in patent US5399487A, “6-peptidylamino-1-naphthalenesulfonamides useful as fluorogenic proteolytic enzyme substrates” (Haematologic Technologies, Inc., priority 1993, dated 1995).
# Key:
# Assay type in all cases: biochemical
# factor VIIa = biological target: T1, factor VIIa (Homo sapiens, UniProt P08709); experiment: Fluorogenic enzyme assay, relative hydrolysis rates (Table 8); details: at 100 hours; 10 nM enzyme, substrate 1 μM
# T1 construct: directly measure the enzymatic activity of factor VIIa in the presence and absence of tissue factor and phospholipid
# T1 sequence (P08709 213-466 limits assumed): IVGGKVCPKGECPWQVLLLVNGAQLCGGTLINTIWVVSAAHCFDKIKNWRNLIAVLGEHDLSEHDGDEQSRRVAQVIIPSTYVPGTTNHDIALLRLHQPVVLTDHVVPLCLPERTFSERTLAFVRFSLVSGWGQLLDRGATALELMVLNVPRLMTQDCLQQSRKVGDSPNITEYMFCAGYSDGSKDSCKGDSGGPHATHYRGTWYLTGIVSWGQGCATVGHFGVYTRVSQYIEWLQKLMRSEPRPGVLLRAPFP
# T1 sequence (P08709 61-212 limits assumed): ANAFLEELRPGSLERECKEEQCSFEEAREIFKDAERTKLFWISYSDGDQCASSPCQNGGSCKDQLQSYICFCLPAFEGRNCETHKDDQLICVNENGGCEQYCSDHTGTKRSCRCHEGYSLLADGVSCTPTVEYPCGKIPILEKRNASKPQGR
# Experimental: (§1) Enzyme assays (except factor VIIa assays, see below) were conducted in 20 mM Tris, 150 mM NaCl, pH 7.4 (TBS) at room temperature (22° C.). The final volume for all reaction mixtures was 2.0 ml. Fluorogenic substrates were dissolved in DMSO to a stock concentration of 10 mM. The 10 mM stock solution was diluted in TBS to the final working concentration prior to all assays. Enzyme was added to mixtures containing buffer components and substrate and the initial rate of substrate hydrolysis was measured as the change in fluorescent intensity over time, corresponding to the generation of the particular 6-amino-1-naphthalenesulfonamide fluorophore from the provided substrate. Quantitation of substrate hydrolysis was accomplished by establishing a standard curve from the appropriate fluorescent moiety. Fluorescence was monitored (continuously or discontinuously) using a Perkin Elmer fluorescence spectrophotometer, model MPF-44A, equipped with a standard chart recorder. The fluorophore was detected using monochrometers set at an excitation wavelength of 352 nm and an emission wavelength of 470 nm. Light scattering artifacts were minimized using a 399 nm cut off filter in the emission light beam.
# Factor VII assays were conducted in 20 mM HEPES, 150 mM NaCl, 5 mM CaCl2, pH 7.4 (HBS) at 37° C. The final volume for all reactions was 1.6 ml. 6-(Mes-D-Leu-Gly-Arg)amino-1-(N,N-diethyl)naphthalenesulfonamide was dissolved in DMSO to a stock concentration of 10 mM. This 10 mM stock solution of was diluted in HBS to final working concentration prior to all assays. For reactions involving tissue factor (TF) and phospholipid vesicles, recombinant human tissue factor was solubilized in either 0.04% n-dodecyl octaethylene glycol (C12 E8) or 0.8% octyl glucoside. The TF/n-dodecyl octaethylene glycol was then relipidated into PCPS or PC vesicles by a 30 minute incubation step as described by Lawson & Mann, J. Biol. Chem. 266: 11317-11327 (1991). TF/octyl glucoside was relipidated into PC or PCPS vesicles by a thirty minute incubation step followed by exhaustive dialysis. The final concentration of tissue factor used in the studies described here ranged from 2 to 50 nM depending on the nature of the experiment.
# Fifteen minutes prior to the start of all reactions factor VIIa was added to the reaction system. This incubation period was followed by the addition of substrate (1 μM to 400 μM) to the mixture to start the reaction. In experiments designed to determine kinetic constants of substrate hydrolysis, 50 nM rVIIa was used when no tissue factor was present in the reaction system, while 0.5 nM rVIIa was used when tissue factor was present in the reaction system. The rate of substrate hydrolysis was measured by change in fluorescence over time, which corresponded with the generation of the 6-amino-1-(N,N-diethyl)naphthalenesulfonamide from the provided substrate. The kinetic constants of 6-(Mes-D-Leu-Gly-Arg)amino-1-(N,N-diethyl)naphthalenesulfonamide hydrolysis as a function of factor VIIa/tissue factor complex assembly are shown in Table 10.
# thrombin (IIa) = biological target: T2, thrombin (IIa) (Homo sapiens, UniProt P00734); experiment: Fluorogenic enzyme assay (Example 5); details: for TIME TO 10% HYDROLYSIS (HOURS), IIa: substrate 1 μM
# T2 construct: 0.5 nM human thrombin (IIa)
# Experimental: as §1
# (§2) The kinetic constants of substrate hydrolysis were determined using the non-linear least squares regression analysis program ENZFITTER (Cambridge, UK). This program was used to iteratively fit initial rates of substrate hydrolysis to the Michaelis-Menten equation and the kinetic constants of substrate hydrolysis (Km) and (kcat) were calculated.
# [1] = biological target: activated protein C (APC) (Homo sapiens, UniProt P04070); experiment: Fluorogenic enzyme assay (Example 5); set-up: key to Kinetic constants, APC (symbol b): slow substrate hydrolysis, no kinetic constants calculated; details: for TIME TO 10% HYDROLYSIS (HOURS), APC: substrate 1 μM
# activated protein C (APC), sequence (P04070 212-461 limits assumed): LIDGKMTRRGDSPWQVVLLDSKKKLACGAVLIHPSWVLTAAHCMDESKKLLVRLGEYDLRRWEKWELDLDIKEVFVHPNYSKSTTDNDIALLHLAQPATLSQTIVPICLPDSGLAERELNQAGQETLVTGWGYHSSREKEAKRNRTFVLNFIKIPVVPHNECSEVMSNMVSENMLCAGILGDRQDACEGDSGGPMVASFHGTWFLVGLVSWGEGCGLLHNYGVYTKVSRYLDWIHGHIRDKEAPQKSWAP
# activated protein C (APC), sequence (P04070 43-197 limits assumed): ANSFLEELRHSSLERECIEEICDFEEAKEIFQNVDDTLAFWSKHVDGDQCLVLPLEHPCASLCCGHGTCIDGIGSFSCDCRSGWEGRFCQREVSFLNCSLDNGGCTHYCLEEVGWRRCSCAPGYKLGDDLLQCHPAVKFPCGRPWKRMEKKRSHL
# Experimental: as §1, §2
# factor IXa = factor IXa (Homo sapiens, UniProt P00740); experiment: Fluorogenic enzyme assay (Example 5); set-up: key to Kinetic constants, IXa (symbol b): slow substrate hydrolysis, no kinetic constants calculated; details: for TIME TO 10% HYDROLYSIS (HOURS), IXa / hydrolysis, IXa (symbol d): 100 nM enzyme, substrate 1 μM; for hydrolysis, IXa (symbol d): at 100 hours
# factor IXa, sequence (P00740 227-461 limits assumed): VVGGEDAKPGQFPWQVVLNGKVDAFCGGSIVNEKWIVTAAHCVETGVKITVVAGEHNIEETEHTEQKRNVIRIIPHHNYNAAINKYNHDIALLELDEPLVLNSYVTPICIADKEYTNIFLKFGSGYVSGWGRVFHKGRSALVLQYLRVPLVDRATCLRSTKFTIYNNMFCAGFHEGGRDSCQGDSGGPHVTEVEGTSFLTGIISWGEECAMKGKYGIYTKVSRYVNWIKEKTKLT
# factor IXa, sequence (P00740 47-191 limits assumed): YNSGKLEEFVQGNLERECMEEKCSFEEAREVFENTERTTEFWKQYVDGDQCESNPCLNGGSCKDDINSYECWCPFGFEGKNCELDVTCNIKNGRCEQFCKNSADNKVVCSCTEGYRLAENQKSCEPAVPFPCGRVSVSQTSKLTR
# Experimental: as §1, §2
# factor Xa = factor Xa (Homo sapiens, UniProt P00742); experiment: Fluorogenic enzyme assay (Example 5); details: for Km / kcat /Km, Xa / kcat, Xa: Table 9
# factor Xa, sequence (P00742 235-488 limits assumed): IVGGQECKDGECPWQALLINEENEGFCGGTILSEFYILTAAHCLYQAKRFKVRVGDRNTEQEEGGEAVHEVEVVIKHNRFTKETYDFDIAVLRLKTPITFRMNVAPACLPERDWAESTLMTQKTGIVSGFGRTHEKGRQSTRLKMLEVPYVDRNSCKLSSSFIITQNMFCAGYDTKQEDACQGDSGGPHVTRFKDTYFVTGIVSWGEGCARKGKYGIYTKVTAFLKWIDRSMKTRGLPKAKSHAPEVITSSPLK
# factor Xa, sequence (P00742 41-179 limits assumed): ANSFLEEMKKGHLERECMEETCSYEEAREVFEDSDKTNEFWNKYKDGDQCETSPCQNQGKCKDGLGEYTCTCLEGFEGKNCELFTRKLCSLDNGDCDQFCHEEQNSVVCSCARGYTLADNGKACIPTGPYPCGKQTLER
# Experimental: as §1, §2
# plasmin (Plm) = plasmin (Plm) (Homo sapiens, UniProt P00747); experiment: Fluorogenic enzyme assay (Example 5); details: substrate 1 μM
# plasmin (Plm), sequence (P00747 581-810 limits assumed, species assumed): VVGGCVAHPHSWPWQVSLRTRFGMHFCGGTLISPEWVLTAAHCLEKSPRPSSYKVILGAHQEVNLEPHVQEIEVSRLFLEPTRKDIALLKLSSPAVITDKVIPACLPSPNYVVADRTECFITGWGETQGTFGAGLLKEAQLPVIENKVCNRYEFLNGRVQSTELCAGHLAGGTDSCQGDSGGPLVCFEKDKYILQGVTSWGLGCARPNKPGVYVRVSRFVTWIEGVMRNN
# plasmin (Plm), sequence (P00747 97-580 limits assumed, species assumed): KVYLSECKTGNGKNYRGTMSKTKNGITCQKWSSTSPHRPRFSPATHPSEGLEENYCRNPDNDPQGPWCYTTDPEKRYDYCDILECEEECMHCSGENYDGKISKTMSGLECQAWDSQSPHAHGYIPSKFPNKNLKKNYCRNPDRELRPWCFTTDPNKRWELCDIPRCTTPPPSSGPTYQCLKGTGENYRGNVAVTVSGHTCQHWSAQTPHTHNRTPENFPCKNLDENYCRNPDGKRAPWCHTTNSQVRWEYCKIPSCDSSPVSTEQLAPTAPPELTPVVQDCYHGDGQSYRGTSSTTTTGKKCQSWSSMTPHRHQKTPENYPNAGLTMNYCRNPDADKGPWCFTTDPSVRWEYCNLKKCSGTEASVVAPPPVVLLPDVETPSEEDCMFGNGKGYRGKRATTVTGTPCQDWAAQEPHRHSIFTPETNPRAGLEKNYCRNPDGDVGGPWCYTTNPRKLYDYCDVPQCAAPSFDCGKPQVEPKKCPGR
# Experimental: as §1, §2
# [2] = biological target: tissue plasminogen activator (t-PA) (Homo sapiens, UniProt P00750); experiment: Fluorogenic enzyme assay (Example 5); details: 100 nM enzyme, substrate 1 μM
# tissue plasminogen activator (t-PA), sequence (P00750 36-562, species assumed): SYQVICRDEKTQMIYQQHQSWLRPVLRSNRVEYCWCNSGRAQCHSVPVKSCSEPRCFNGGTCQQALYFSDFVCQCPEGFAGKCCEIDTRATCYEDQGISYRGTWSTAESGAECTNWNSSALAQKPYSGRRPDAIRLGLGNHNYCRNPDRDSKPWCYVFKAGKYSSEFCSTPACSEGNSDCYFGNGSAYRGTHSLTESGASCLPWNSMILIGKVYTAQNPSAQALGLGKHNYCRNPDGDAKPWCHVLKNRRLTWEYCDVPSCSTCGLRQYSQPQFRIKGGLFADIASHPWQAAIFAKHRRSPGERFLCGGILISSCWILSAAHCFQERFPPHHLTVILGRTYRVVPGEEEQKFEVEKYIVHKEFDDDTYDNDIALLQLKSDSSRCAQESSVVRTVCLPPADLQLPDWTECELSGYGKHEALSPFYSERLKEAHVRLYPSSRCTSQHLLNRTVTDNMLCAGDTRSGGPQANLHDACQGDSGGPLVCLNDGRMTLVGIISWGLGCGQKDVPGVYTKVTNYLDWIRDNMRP
# Experimental: as §1, §2
# urokinase (u-PA) = urokinase (u-PA) (Homo sapiens, UniProt P00749); experiment: Fluorogenic enzyme assay (Example 5); details: 100 nM enzyme, substrate 1 μM
# Experimental: as §1, §2
"TIME TO 10% HYDROLYSIS (HOURS), IIa (thrombin (IIa); 1 nM enzyme (footnote c))",Km (thrombin (IIa); Table 9),"kcat, IIa (thrombin (IIa); Table 9)","TIME TO 10% HYDROLYSIS (HOURS), APC ([1]; 10 nM enzyme)",Km ([1]; Table 9),"kcat /Km, APC ([1]; Table 9)","kcat, APC ([1]; Table 9)","TIME TO 10% HYDROLYSIS (HOURS), IXa (factor IXa)",Km (factor IXa; Table 9),"kcat, IXa (factor IXa; Table 9)","kcat/Km, IXa (factor IXa; Table 9)","TIME TO 10% HYDROLYSIS (HOURS), Xa (factor Xa; 10 nM enzyme, substrate 1 μM)",Km (factor Xa),"kcat /Km, Xa (factor Xa)","kcat, Xa (factor Xa)","TIME TO 10% HYDROLYSIS (HOURS), Plm (plasmin (Plm); 10 nM enzyme)","TIME TO 10% HYDROLYSIS (HOURS), t-PA [2]","TIME TO 10% HYDROLYSIS (HOURS), u-PA (urokinase (u-PA))","TIME TO 10% HYDROLYSIS (HOURS), IIa (thrombin (IIa); 10 nM enzyme)",Compound,"hydrolysis, VIIa (symbol d) (factor VIIa)",also measured
0.01 h,7.7 µM,11.6 s⁻¹,0.02 h,160 µM,6880 M⁻¹ s⁻¹,1.1 s⁻¹,4 h,343 µM,0.4 s⁻¹,1170 M⁻¹ s⁻¹,0.4 h,400 µM,7250 M⁻¹ s⁻¹,2.9 s⁻¹,0.33 h,1.3 h,1 h,,Br.Br.CC(C)C[C@@H](N)C(=O)N1CCC[C@H]1C(=O)N[C@@H](CCCNC(=N)N)C(=O)Nc1ccc2c(S(=O)(=O)N3CCCCC3)cccc2c1 [D-LPR-ANSN(CH2)5],d (hydrolysis at 100 hours was less than 10%.),
,,,,,,,,,,,,,,,,,,26 h,CN(C)S(=O)(=O)c1cccc2cc(NC(=O)[C@H](CCCNC(=N)N)NC(=O)[C@@H](N)CCCCNC(=O)OCc3ccccc3)ccc12.Cl.Cl [N^ω -AZ)KJR-ANSN(CH3)2],d (hydrolysis at 100 hours was less than 10%.),"TIME TO 10% HYDROLYSIS (HOURS), APC ([1]; 100 nM enzyme (footnote b)): 5.5 h; hydrolysis, IXa (symbol d) (factor IXa): d (hydrolysis at 100 hours was less than 10%.); hydrolysis, Xa (symbol d) (factor Xa; at 100 hours, 10 nM enzyme, substrate 1 μM): d (hydrolysis at 100 hours was less than 10%.); TIME TO 10% HYDROLYSIS (HOURS), Plm (plasmin (Plm); 100 nM enzyme (footnote b)): 1.5 h; hydrolysis, t-PA (symbol d) ([2]; at 100 hours): d (hydrolysis at 100 hours was less than 10%.); hydrolysis, u-PA (symbol d) (urokinase (u-PA); at 100 hours): d (hydrolysis at 100 hours was less than 10%.)"
,44.4 µM,0.04 s⁻¹,3 h,,,,,,,,9 h,230 µM,260 M⁻¹ s⁻¹,0.06 s⁻¹,22 h,4 h,5 h,4 h,CCCNS(=O)(=O)c1cccc2cc(NC(=O)[C@H](CCCNC(=N)N)NC(=O)[C@H](Cc3ccccc3)NC(=O)[C@@H]3CCCN3C(=O)OC(C)(C)C)ccc12 [BocPFR-ANSNHC3 H7],d (hydrolysis at 100 hours was less than 10%.),"kcat /Km, IIa (thrombin (IIa); Table 9): 900 M⁻¹ s⁻¹; Kinetic constants, APC (symbol b) ([1]; Table 9): b; Kinetic constants, IXa (symbol b) (factor IXa; Table 9): b; hydrolysis, IXa (symbol d) (factor IXa): d (hydrolysis at 100 hours was less than 10%.)"
0.01 h,4.2 µM,16.1 s⁻¹,0.5 h,246 µM,28900 M⁻¹ s⁻¹,7.1 s⁻¹,7 h,141 µM,0.39 s⁻¹,2750 M⁻¹ s⁻¹,0.02 h,26.3 µM,133000 M⁻¹ s⁻¹,3.5 s⁻¹,0.08 h,1 h,1 h,,CC(C)C[C@@H](NC(=O)OCc1ccccc1)C(=O)N1CCC[C@H]1C(=O)N[C@@H](CCCNC(=N)N)C(=O)Nc1ccc2c(S(=O)(=O)N3CCCCC3)cccc2c1 [ZD-LPR-ANSN(CH2)5],d (hydrolysis at 100 hours was less than 10%.),
